Source: US20090232909A1, “Method for determining physiological effects of hemoglobin” (priority 1999, published 2009)
“Also recorded” adds a separate entry of the source.

Tests used:
Hb = Hb (Homo sapiens, UniProt P68871+P69905); settings: cited from earlier work
AE1 = target: T1, AE1 (Homo sapiens, UniProt P02730); experiment: SNO content of AE1 immunoprecipitates from IOV and RBC membrane extracts; assay type: biochemical; settings: RBCs treated with 0.1 mM DIDS before NO
T1 construct: immunoprecipitated AE1 with monoclonal antibodies, and measured NO in immunoprecipitates (IPs); endogenous in cells; host or cells: RBCs (fresh venous blood) and IOVs from outdated RBCs; TX-100 or NP-40 extracts
T1 sequence (P02730 1-911): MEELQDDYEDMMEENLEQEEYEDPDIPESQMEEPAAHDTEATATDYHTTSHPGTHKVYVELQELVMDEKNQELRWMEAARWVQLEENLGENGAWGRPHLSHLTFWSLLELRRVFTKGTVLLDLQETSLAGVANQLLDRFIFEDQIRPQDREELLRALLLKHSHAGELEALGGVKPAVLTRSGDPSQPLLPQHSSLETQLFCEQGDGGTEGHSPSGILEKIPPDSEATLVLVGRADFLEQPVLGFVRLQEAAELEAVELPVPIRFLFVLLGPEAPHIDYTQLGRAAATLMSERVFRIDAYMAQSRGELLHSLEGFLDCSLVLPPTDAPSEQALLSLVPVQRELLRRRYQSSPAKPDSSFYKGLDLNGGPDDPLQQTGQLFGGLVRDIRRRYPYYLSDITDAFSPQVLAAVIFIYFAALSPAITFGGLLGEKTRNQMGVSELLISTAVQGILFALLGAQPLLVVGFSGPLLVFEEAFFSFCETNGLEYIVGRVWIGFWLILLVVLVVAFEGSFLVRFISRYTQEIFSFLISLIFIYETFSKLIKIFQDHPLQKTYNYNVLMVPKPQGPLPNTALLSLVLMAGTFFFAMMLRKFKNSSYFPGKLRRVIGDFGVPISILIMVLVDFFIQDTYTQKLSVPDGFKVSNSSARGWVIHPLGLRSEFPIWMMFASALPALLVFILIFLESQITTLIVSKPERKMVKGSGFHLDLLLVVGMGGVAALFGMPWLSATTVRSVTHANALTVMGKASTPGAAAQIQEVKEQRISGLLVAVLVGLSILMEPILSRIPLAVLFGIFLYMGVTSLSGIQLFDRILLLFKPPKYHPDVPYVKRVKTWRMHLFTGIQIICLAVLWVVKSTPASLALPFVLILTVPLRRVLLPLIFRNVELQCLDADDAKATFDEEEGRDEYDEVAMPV
Procedure: Immunoprecipitation was carried out by incubation of TX-100 or NP-40 extracts with antibodies followed by protein G-Sepharose. We employed two monoclonal anti-AE1 antibodies (Sigma, clone BIII-136, and kindly provided by M. Telen) that recognized epitopes in the cytoplasmic domain and that produced indistinguishable results. Immune complexes were eluted with 10 mM glycine at pH 3.0, and eluates were adjusted immediately to pH 7.4 followed by photolysis/chemiluminescence. Efficiency of immunoprecipitation was confirmed by Western blotting. Binding of SNO-Hb to IOVs was assessed in 10 mM MOPS buffer, pH 7, at room temperature and 21% O2. Incubation was for 15 mins before IOVs were solubilized in 1% TX-100, and heme content was assessed spectrophotometrically. When employed, RBCs were treated for 60 mins with DIDS (0.1 mM; calculated 10-fold molar excess over AE1), then washed thoroughly to remove unreacted DIDS. RBCs were then exposed to NO (as above) or used to prepare DIDS-modified IOVs (as above).
To assess this mechanism, we incubated IOVs with free or Sepharose-bound NO-Hb and also treated RBCs with NO(NO:heme ratio of 1:250), prepared TX-100 or NP-40 extracts of IOVs and RBC membranes, immunoprecipitated AE1 with monoclonal antibodies, and measured NO in immunoprecipitates (IPs). […] SNO was detected at negligible levels in IPs generated with a non-specific mouse IgG (FIGS. 8A-8C). […]

Chain of Hb (P69905 2-142 limits assumed): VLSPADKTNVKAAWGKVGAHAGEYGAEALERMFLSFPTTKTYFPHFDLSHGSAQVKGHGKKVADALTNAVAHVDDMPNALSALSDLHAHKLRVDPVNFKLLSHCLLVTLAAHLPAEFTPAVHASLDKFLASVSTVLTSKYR
Chain of Hb (P68871 2-147 limits assumed): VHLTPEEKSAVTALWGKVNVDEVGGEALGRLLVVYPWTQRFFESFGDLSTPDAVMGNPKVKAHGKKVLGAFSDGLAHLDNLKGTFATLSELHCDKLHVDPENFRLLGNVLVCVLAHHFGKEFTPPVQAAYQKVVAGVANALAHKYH

| SMILES | rate constant of NO-mediated oxidation of oxyHb to metHb (Hb) [M⁻¹ s⁻¹] | rate constant of binding of NO to unoccupied hemes in Hb (Hb) [M⁻¹ s⁻¹] | effect on SNO content of AE1 IPs from RBC membrane extracts (AE1) |
| --- | --- | --- | --- |
| [N]=O [NO, nitric oxide] | 3.7e+07 | 2.6e+07 |  |
| O=S(=O)(O)c1cc(N=C=S)ccc1C=Cc1ccc(N=C=S)cc1S(=O)(=O)O [DIDS, 4,4′-diisothiocyanatostilbene-2,2′-disulfonic acid] |  |  | reduced substantially; also recorded: greatly reduced |
